Experimental data published in article PMC5572662 (ChemMedChem, 2017).
“Also recorded” adds a separate entry of the source. Square brackets hold non-standard residues; d marks the D form. Peptide text beside a SMILES is read from it. * marks the point of attachment. NH(4-amidinobenzyl) = N=C(N)c1ccc(CN*)cc1; Tle = CC(C)(C)[C@H](N)C(=O)O; PhAc = O=C(Cc1ccccc1)*

Legend:
[1] = system: Semliki Forest virus (SFV); test: Semliki Forest virus replication in BHK-21 cells, titers by plaque assay; assay type: cell-based; settings: for reduction of SFV virus titer: 25 μM inhibitor, MOI 0.01, plaque assay 24 h post-infection
[2] = system: E3-E2 (p62) cleavage; test: Western blot of E3-E2; assay type: cell-based, Semliki Forest virus; settings: 25 μM inhibitor, BHK-21 cells, SFV MOI 10, 8 h post-infection
[3] = system: chikungunya virus (CHIKV); test: Chikungunya virus replication in BHK-21 cells, titers by plaque assay; assay type: cell-based; settings: 25 μM inhibitor, MOI 0.1, plaque assay 24 h post-infection
[4] = biological target: recombinant soluble human furin (Homo sapiens, UniProt P09958); test: Enzyme kinetic measurements with recombinant soluble human furin; assay type: biochemical; settings: for Ki: Furin Ki, as given in the text in nM; for fold improved Ki (inhibition constant) versus parent analogue: 20 versus 18 (P3 Val to Tle), 21 and 22 versus the P2 Lys analogues
[5] = system: Pseudomonas aeruginosa exotoxin A; settings: living rodents ref 8; cited from earlier work
[6] = system: anthrax toxin; settings: living rodents ref 8; cited from earlier work

Chain of recombinant soluble human furin (P09958 108-715 limits assumed): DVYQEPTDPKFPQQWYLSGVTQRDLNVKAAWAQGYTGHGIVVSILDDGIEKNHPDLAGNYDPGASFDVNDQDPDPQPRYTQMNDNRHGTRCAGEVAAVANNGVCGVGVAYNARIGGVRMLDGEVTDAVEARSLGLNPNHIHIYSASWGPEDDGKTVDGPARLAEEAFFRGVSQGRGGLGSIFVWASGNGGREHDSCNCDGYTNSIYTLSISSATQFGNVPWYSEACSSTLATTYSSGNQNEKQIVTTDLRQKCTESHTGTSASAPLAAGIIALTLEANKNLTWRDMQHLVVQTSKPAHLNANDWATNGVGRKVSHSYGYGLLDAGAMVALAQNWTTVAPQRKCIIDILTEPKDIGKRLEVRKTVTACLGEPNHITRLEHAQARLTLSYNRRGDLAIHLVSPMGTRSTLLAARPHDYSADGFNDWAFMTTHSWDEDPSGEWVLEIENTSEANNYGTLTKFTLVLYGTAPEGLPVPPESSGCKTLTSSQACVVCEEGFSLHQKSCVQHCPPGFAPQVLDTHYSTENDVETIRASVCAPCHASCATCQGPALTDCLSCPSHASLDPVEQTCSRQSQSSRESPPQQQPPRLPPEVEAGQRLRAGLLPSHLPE

Compound | Ki [4] [nM] | fold improved Ki (inhibition constant) versus parent analogue [4] | other results
CC(C)[C@H](NC(=O)[C@H](CCCNC(=N)N)NC(=O)[C@H](CCCNC(=N)N)NC(=O)[C@H](CCCNC(=N)N)NC(=O)Cc1ccccc1)C(=O)N[C@@H](CCCNC(=N)N)C(=O)NCc1ccc(C(=N)N)cc1 [Compound 5, Phac-Arg-Arg-Arg-Val-Arg-4-Amba] (PhAc-RRRVR-{NH(4-amidinobenzyl)}) |  |  | reduction of SFV virus titer [1]: less than one order of magnitude
CC(C)[C@H](NC(=O)[C@H](CCCNC(=N)N)NC(=O)[C@H](CCCNC(=N)N)NC(=O)[C@H](N)CCCNC(=N)N)C(=O)N[C@@H](CCCNC(=N)N)C(=O)NCc1ccc(C(=N)N)cc1 [Compound 9, H-DArg-Arg-Arg-Val-Arg-4-Amba] (H-[dR]RRVR-{NH(4-amidinobenzyl)}) |  |  | reduction of SFV virus titer [1]: less than one order of magnitude; also recorded: strongly reduced titers; concentration dependence of inhibition of SFV replication ([1]; MOI 0.01, 24 h post-infection (Figure 4)): concentration-dependent inhibition of SFV replication; inhibition of E3-E2 (p62) cleavage [2]: Inhibition of E3-E2 (p62) cleavage; reduction of CHIKV virus titer [3]: strongly reduced titers
CC(=O)N[C@@H](CC(C)C)C(=O)N[C@@H](CC(C)C)C(=O)N[C@@H](CC(C)C)C(=O)N[C@@H](CC(C)C)C(=O)N[C@@H](CCCN=C(N)N)C(=O)N[C@H](C(=O)N[C@@H](CCCCN)C(=O)NCc1ccc(C(=N)N)cc1)C(C)C [Compound 18, Ac-Leu-Leu-Leu-Leu-Arg-Val-Lys-4-Amba, reference compound] (Ac-LLLLRVK-{NH(4-amidinobenzyl)}) | ~0.5 |  | 
CC(=O)N[C@H](CC(C)C)C(=O)N[C@@H](CC(C)C)C(=O)N[C@@H](CC(C)C)C(=O)N[C@@H](CC(C)C)C(=O)N[C@@H](CCCNC(=N)N)C(=O)N[C@H](C(=O)N[C@@H](CCCCN)C(=O)NCc1ccc(C(=N)N)cc1)C(C)C [Compound 19, Ac-DLeu-Leu-Leu-Leu-Arg-Val-Lys-4-Amba, reference compound] (Ac-[dL]LLLRVK-{NH(4-amidinobenzyl)}) | ~0.5 |  | 
CC(=O)N[C@@H](CC(C)C)C(=O)N[C@@H](CC(C)C)C(=O)N[C@@H](CC(C)C)C(=O)N[C@@H](CC(C)C)C(=O)N[C@@H](CCCNC(=N)N)C(=O)N[C@H](C(=O)N[C@@H](CCCCN)C(=O)NCc1ccc(C(=N)N)cc1)C(C)(C)C [Compound 20, Ac-Leu-Leu-Leu-Leu-Arg-Tle-Lys-4-Amba] (Ac-LLLLR[Tle]K-{NH(4-amidinobenzyl)}) |  | 2.5 fold | 
CC(=O)N[C@@H](CC(C)C)C(=O)N[C@@H](CC(C)C)C(=O)N[C@@H](CC(C)C)C(=O)N[C@@H](CC(C)C)C(=O)N[C@@H](CCCNC(=N)N)C(=O)N[C@H](C(=O)N[C@@H](CCCNC(=N)N)C(=O)NCc1ccc(C(=N)N)cc1)C(C)C [Compound 21, Ac-Leu-Leu-Leu-Leu-Arg-Val-Arg-4-Amba] (Ac-LLLLRVR-{NH(4-amidinobenzyl)}) |  | ~ 2 fold | 
CC(=O)N[C@@H](CC(C)C)C(=O)N[C@@H](CC(C)C)C(=O)N[C@@H](CC(C)C)C(=O)N[C@@H](CC(C)C)C(=O)N[C@@H](CCCNC(=N)N)C(=O)N[C@H](C(=O)N[C@@H](CCCNC(=N)N)C(=O)NCc1ccc(C(=N)N)cc1)C(C)(C)C [Compound 22, Ac-Leu-Leu-Leu-Leu-Arg-Tle-Arg-4-Amba] (Ac-LLLLR[Tle]R-{NH(4-amidinobenzyl)}) |  | ~ 2 fold | 
CC(C)[C@H](NC(=O)Cc1cccc(CN)c1)C(=O)N[C@@H](CCCNC(=N)N)C(=O)NCc1ccc(C(=N)N)cc1 [Compound 23, 3-AMe-Phac-Val-Arg-4-Amba] | 48.2 |  | 
CC(C)[C@H](NC(=O)Cc1ccc(CN)cc1)C(=O)N[C@@H](CCCNC(=N)N)C(=O)NCc1ccc(C(=N)N)cc1 [Compound 24, 4-AMe-Phac-Val-Arg-4-Amba] | 37.8 |  | 
hexa-D-arginine |  |  | protective effect against Pseudomonas aeruginosa exotoxin A [5]: protective effect; protective effect against anthrax toxin [6]: protective effect
